Converted amounts (≈) assume the structure as drawn.
What was measured:
Assay type in all cases: cell-based
[1] = system: Staphylococcus aureus ATCC29213; experiment: MIC, microbroth dilution (NCCLS); conditions: rifS strain, Cation-Adjusted Mueller-Hinton Broth, 37° C., read-out: MIC
[2] = system: Staphylococcus aureus ATCC29213 rpoB^H418Y; experiment: microbe, parasite or virus in culture; conditions: Staphylococcus aureus, ATCC29213; rifR strain; Cation-Adjusted Mueller-Hinton Broth, 37° C.; read-out: MIC
[3] = system: Staphylococcus aureus MT1222 gyrA^A116E grlB^S80F; experiment: microbe, parasite or virus in culture; conditions: cipR strain, Cation-Adjusted Mueller-Hinton Broth, 37° C., read-out: MIC
[4] = system: Staphylococcus epidermidis ATCC12228; experiment: MIC, microbroth dilution (NCCLS); conditions: rifS strain, Cation-Adjusted Mueller-Hinton Broth, 37° C., read-out: MIC
[5] = system: Streptococcus pneumoniae ATCC6303; experiment: MIC, microbroth dilution (NCCLS); conditions: rifS strain, THY Broth with 1 mg/mL catalase, 5% CO2, 37° C., read-out: MIC
[6] = system: Streptococcus pyogenes ATCC19615; experiment: MIC, microbroth dilution (NCCLS); conditions: rifS strain, THY Broth, 37° C., read-out: MIC
[7] = system: Haemophilus influenzae ATCC10211; experiment: MIC, microbroth dilution (NCCLS); conditions: rifS strain, BHI Broth with NAD and hematin, 37° C., read-out: MIC

Compound | MIC [1] [µg/mL] | MIC [2] [µg/mL] | MIC [3] [µg/mL] | MIC [4] [µg/mL] | MIC [5] [µg/mL] | MIC [6] [µg/mL] | MIC [7] [µg/mL]
COc1c(N2CCCC(N/N=C/c3c4c(O)c5c(O)c(C)c6c(c5c3O)C(=O)[C@@](C)(O/C=C/[C@H](OC)[C@@H](C)[C@@H](OC(C)=O)[C@H](C)[C@H](O)[C@H](C)[C@@H](O)[C@@H](C)/C=C/C=C(/C)C(=O)N4)O6)C2)c(F)cc2c(=O)c(C(=O)O)cn(C3CC3)c12 (mixture of isomers) [Example 24, (R/S)-3-[1-(3-Carboxy-1-cyclopropyl-6-fluoro-8-methoxy-4-oxo-1,4-dihydroquinolin-7-yl)-piperidin-3-hydrazino-methylenyl]-rifamycin SV] | 0.008 to 1 (≈ 0.00728 to 0.911 µM) | 0.06 to 16 (≈ 0.0546 to 14.6 µM) | 0.008 to 0.125 (≈ 0.00728 to 0.114 µM) | 0.008 to 0.1 (≈ 0.00728 to 0.0911 µM) | 0.008 to 0.06 (≈ 0.00728 to 0.0546 µM) | 0.008 to 0.03 (≈ 0.00728 to 0.0273 µM) | 0.125 to 4 (≈ 0.114 to 3.64 µM)
COc1c(N2CCC(NC3CCN(/N=C/c4c5c(O)c6c(O)c(C)c7c(c6c4O)C(=O)[C@@](C)(O/C=C/[C@H](OC)[C@@H](C)[C@@H](OC(C)=O)[C@H](C)[C@H](O)[C@H](C)[C@@H](O)[C@@H](C)/C=C/C=C(/C)C(=O)N5)O7)CC3)C2)c(F)cc2c(=O)c(C(=O)O)cn(C3CC3)c12 (mixture of isomers) [Example 26, (R/S)-3-{4-[1-(3-Carboxy-1-cyclopropyl-6-fluoro-8-methoxy-4-oxo-1,4-dihydroquinolin-7-yl)-pyrrolidin-3-ylamino]-piperidin-1-yl-aminomethylenyl}-rifamycin SV] | 0.008 to 1 (≈ 0.00685 to 0.857 µM) | 0.06 to 16 (≈ 0.0514 to 13.7 µM) | 0.008 to 0.125 (≈ 0.00685 to 0.107 µM) | 0.008 to 0.1 (≈ 0.00685 to 0.0857 µM) | 0.008 to 0.06 (≈ 0.00685 to 0.0514 µM) | 0.008 to 0.03 (≈ 0.00685 to 0.0257 µM) | 0.125 to 4 (≈ 0.107 to 3.43 µM)
COc1c(N2CCN(C3CCN(/N=C/c4c5c(O)c6c(O)c(C)c7c(c6c4O)C(=O)[C@@](C)(O/C=C/[C@H](OC)[C@@H](C)[C@@H](OC(C)=O)[C@H](C)[C@H](O)[C@H](C)[C@@H](O)[C@@H](C)/C=C/C=C(/C)C(=O)N5)O7)C3)CC2)c(F)cc2c(=O)c(C(=O)O)cn(C3CC3)c12 (mixture of isomers) [Example 28, (R/S)-3-{3-[1-(3-carboxy-1-cyclopropyl-6-fluoro-8-methoxy-4-oxo-1,4-dihydroquinolin-7-yl)-piperazin-4-yl]-pyrrolidinyl-1-hydrazino-methylenyl}-rifamycin SV] | 0.008 to 1 (≈ 0.00694 to 0.867 µM) | 0.06 to 16 (≈ 0.052 to 13.9 µM) | 0.008 to 0.125 (≈ 0.00694 to 0.108 µM) | 0.008 to 0.1 (≈ 0.00694 to 0.0867 µM) | 0.008 to 0.06 (≈ 0.00694 to 0.052 µM) | 0.008 to 0.03 (≈ 0.00694 to 0.026 µM) | 0.125 to 4 (≈ 0.108 to 3.47 µM)
COc1c(N2CCC(N(Cc3ccccn3)/N=C/c3c4c(O)c5c(O)c(C)c6c(c5c3O)C(=O)[C@@](C)(O/C=C/[C@H](OC)[C@@H](C)[C@@H](OC(C)=O)[C@H](C)[C@H](O)[C@H](C)[C@@H](O)[C@@H](C)/C=C/C=C(/C)C(=O)N4)O6)C2)c(F)cc2c(=O)c(C(=O)O)cn(C3CC3)c12 (mixture of isomers) [Example 30, (R/S)-3-[1-(3-carboxy-1-cyclopropyl-6-fluoro-8-methoxy-4-oxo-1,4-dihydroquinolin-7-yl)-pyrrolidinyl-3-(pyridin-2-ylmethyl)hydrazino-methylenyl]-rifamycin SV] | 0.008 to 1 (≈ 0.00681 to 0.851 µM) | 0.06 to 16 (≈ 0.0511 to 13.6 µM) | 0.008 to 0.125 (≈ 0.00681 to 0.106 µM) | 0.008 to 0.1 (≈ 0.00681 to 0.0851 µM) | 0.008 to 0.06 (≈ 0.00681 to 0.0511 µM) | 0.008 to 0.03 (≈ 0.00681 to 0.0255 µM) | 0.125 to 4 (≈ 0.106 to 3.4 µM)
CO[C@H]1/C=C/O[C@@]2(C)Oc3c(C)c(O)c4c(O)c(c(/C=N/N5CCC(C(=O)NC6CCN(c7c(F)cc8c(=O)c(C(=O)O)cn(C9CC9)c8c7Cl)C6)CC5)c(O)c4c3C2=O)NC(=O)/C(C)=C\C=C\[C@H](C)[C@H](O)[C@@H](C)[C@@H](O)[C@@H](C)[C@H](OC(C)=O)[C@@H]1C (mixture of isomers) [Example 31, (R/S)-3-{4-[1-(3-Carboxy-8-chloro-1-cyclopropyl-6-fluoro-4-oxo-1,4-dihydroquinolin-7-yl)-pyrrolidin-3-ylcarbamoyl]-piperidin-1-yl-aminomethylenyl}-rifamycin SV] | 0.008 to 1 (≈ 0.00667 to 0.834 µM) | 0.06 to 16 (≈ 0.05 to 13.3 µM) | 0.008 to 0.125 (≈ 0.00667 to 0.104 µM) | 0.008 to 0.1 (≈ 0.00667 to 0.0834 µM) | 0.008 to 0.06 (≈ 0.00667 to 0.05 µM) | 0.008 to 0.03 (≈ 0.00667 to 0.025 µM) | 0.125 to 4 (≈ 0.104 to 3.33 µM)
COc1c(N2CCC(N3CCN(/N=C/c4c5c(O)c6c(O)c(C)c7c(c6c4O)C(=O)[C@@](C)(O/C=C/[C@H](OC)[C@@H](C)[C@@H](OC(C)=O)[C@H](C)[C@H](O)[C@H](C)[C@@H](O)[C@@H](C)/C=C/C=C(/C)C(=O)N5)O7)CC3)C2)c(F)cc2c(=O)c(C(=O)O)cn(C3CC3)c12 (mixture of isomers) [Example 33, (R/S)-3-{4-[1-(3-Carboxy-1-cyclopropyl-6-fluoro-8-methoxyoxo-1,4-dihydroquinolin-7-yl)-pyrrolidin-3-yl]-piperazin-1-yl-aminomethylenyl}-rifamycin SV] | 0.008 to 1 (≈ 0.00694 to 0.867 µM) | 0.06 to 16 (≈ 0.052 to 13.9 µM) | 0.008 to 0.125 (≈ 0.00694 to 0.108 µM) | 0.008 to 0.1 (≈ 0.00694 to 0.0867 µM) | 0.008 to 0.06 (≈ 0.00694 to 0.052 µM) | 0.008 to 0.03 (≈ 0.00694 to 0.026 µM) | 0.125 to 4 (≈ 0.108 to 3.47 µM)
